The subject of one series is human EPO. Briefly: Measurement of EPO enzyme activity (EPO protein in blood plasma of mice after intravenous administration of EPO mRNA lipid particles). To be noted: C57BL/6J mice, tail-vein i.v., mRNA 0.1 mg/kg, plasma 20 to 24 hours; aminolipid 50 / DOPE 10 / cholesterol 38.5 / DMG-PEG2000 1.5 mol %; lipid/nucleic acid 64 wt/wt. The series is classed as in vivo. A digest of the protocol:
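C57BL/6J mice received EPO mRNA (5moU) in lipid particles (ionizable lipid, DSPC/DOPE/DOPC, cholesterol, DMG-PEG2000) by tail-vein injection at 0.1 mg/kg mRNA. Plasma taken 20–24 h later; human EPO measured by ELISA and expressed relative to a comparative formulation set as 1.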

Series [1] can be described thus: Particle size of PTEN ASO-LNP. The class given is physicochemical. To be noted: PTEN ASO lipid particles; aminolipid 50 / DSPC 20 / cholesterol 28.5 / monostearyl PEG 1.5 mol %; lipid/nucleic acid 11.8 wt/wt. The procedure:
The first lipid, phospholipid, cholesterol, and polyethylene glycol lipid (PEG lipid) shown in Table 3 were dissolved in ethanol at the molar ratio shown in Table 3 such that the total lipid concentration was 20 mmol/L to obtain the oil phase.
As the neutral lipid, 1,2-Distearoyl-sn-glycero-3-phosphocholine (DSPC, product name: COATSOME MC-8080, NOF corporation) was used. As the cholesterol, cholesterol (product name: Cholesterol HP; Nippon Seika Co., Ltd.) was used. As the PEG lipid, monostearyl PEG (product name: Polyethylene Glycol Monostearate (4E.O.), FUJIFILM Wako Pure Chemical Corporation) was used.
5 mg of PTEN ASO was dissolved in 1 mL of sterile water and diluted with a 10 mmol/L acetate buffer having a pH of 4 such that the nucleic acid concentration was 54.6 μmol/L, to obtain a water phase. Then the water phase and the oil phase were mixed together with a micromixer (see JP5288254B) using a syringe pump such that the volume ratio of water phase:oil phase was 3:1, and the mixed solution was two-fold diluted with a phosphate buffered physiological saline (PBS), thereby obtaining a dispersion of nucleic acid lipid particles.
The particle size and polydispersion index of the lipid particles were measured by 10-fold diluting the dispersion liquid of lipid particle with phosphate buffered physiological saline (PBS) using Zeta-potential & Particle size Analyzer ELS-Z2 (Otsuka Electronics Co., Ltd.).

The nature of series [2]: Particle size of FLuc mRNA-encapsulating lipid particles. The class given is physicochemical. The procedure: The compounds described in Table 2, the neutral lipid, cholesterol (product name: Cholesterol HP; NTPPON FINE CHEMICAL CO., LTD.), and 1,2-dimyristoyl-rac-glycero-3-(methylpolyoxyethylene 2000) (hereinafter, called DMG-PEG2000) were dissolved in ethanol at a molar ratio in Table 2 such that the total lipid concentration became 20 mmol/L, thereby obtaining an oil phase.
As the neutral lipid, 1,2-distearoyl-sn-glycero-3-phosphocholine (product name: COATSOME® MC-8080; NOF corporation) was used in a case of Comparative Example 1, and L-α-dioleoylphosphatidylethanolamine (product name: COATSOME® MC-8181; NOF corporation) was used in a case other than Comparative Example 1.
FLuc mRNA (product name: CleanCap FLuc mRNA (5 moU); TriLink) was diluted with 50 mmol/L citrate buffer having a pH 4 such that the weight ratio of total lipid concentration to mRNA concentration is about 19:1 to 64:1, obtaining a water phase. Then, the water phase and the oil phase were mixed together using NanoAssemblr (Precision NanoSystems) such that the volume ratio of water phase:oil phase was 3:1, and the mixed solution was 1.5-fold diluted with phosphate buffered saline (PBS), thereby obtaining a dispersion liquid of mRNA lipid particles. The dispersion liquid was dialyzed with a 10% aqueous sucrose solution using a dialysis cassette (Slide-A-Lyzer G2, MWCO: 10 kD, Thermo Fisher Scientific) to remove ethanol, thereby obtaining FLuc mRNA-encapsulating lipid particles.
The particle size of the mRNA-encapsulating lipid particles was measured by 10-fold diluting the dispersion liquid of lipid particle with phosphate buffered saline (PBS) using Zeta-potential & Particle size Analyzer ELS-Z2 (Otsuka Electronics Co., Ltd.).

Where [3] appears, read: aminolipid 45 / DOPE 10 / cholesterol 43.5 / DMG-PEG2000 1.5 mol %, lipid/nucleic acid 32 wt/wt.

Turning to `CCCCCCC(CCCC)COC(=O)CCCC(CCCCCC)OC(=O)OCCN(CCOC(=O)OC(CCCCCC)CCCC(=O)OCC(CCCC)CCCCCC)CCN(CC)CC` (stereo not drawn) [Example 8, Bis(2-butyloctyl) 11-(2-(diethylamino)ethyl)-5,17-dihexyl-7,15-dioxo-6,8,14,16-tetraoxa-11-azahenicosanedioate], the “Relative amount of EPO protein (with respect to Comparative Example 1)” value (“Relative amount of EPO protein” for short) with human EPO is recorded as 2.27. The compound further came in with a Particle size in series [1] of 87.7 nm.
In the case of `CCCCCC(CCCCC)COC(=O)CCCC(CCC)OC(=O)OCCN(CCOC(=O)OC(CCC)CCCC(=O)OCC(CCCCC)CCCCC)CCN(CC)CC` (stereo not drawn) [Example 21, Bis(2-pentylheptyl) 11-(2-(diethylamino)ethyl)-7,15-dioxo-5,17-dipropyl-6,8,14,16-tetraoxa-11-azahenicosanedioate], in the series with human EPO, the “Relative amount of EPO protein” value is on record as 4.66. Besides, the values for the Particle size in series [2] (setting [3]) and in series [1] were 100.9 nm and 81.5 nm, respectively.
On to `CCCCCCCOC(=O)CCCC(CCCC(=O)OCCCCCCC)OC(=O)OCCN(CCOC(=O)OC(CCCC(=O)OCCCCCCC)CCCC(=O)OCCCCCCC)CCN(CC)CC` [Example 29, diheptyl 11-(2-(diethylamino)ethyl)-5,17-bis(4-(heptyloxy)-4-oxobutyl)-7,15-dioxo-6,8,14,16-tetraoxa-11-azahenicosanedioate], for which the “Relative amount of EPO protein” value in the series on human EPO stood at 9.90. Further, the Particle size in series [2] (aminolipid 40 / DOPE 10 / cholesterol 48.5 / DMG-PEG2000 1.5 mol %, lipid/nucleic acid 64 wt/wt) is given as 104.8 nm; in series [2] (setting [3]), 129 nm; in series [2] (aminolipid 50 / DOPE 10 / cholesterol 38.5 / DMG-PEG2000 1.5 mol %, lipid/nucleic acid 64 wt/wt), 95.1 nm; in series [1], 104.3 nm.
Consider `CCCCCCCOC(=O)CCCC(CCCC(=O)OCCCCCCC)OC(=O)OCCN(CCOC(=O)OC(CCCC(=O)OCCCCCC)CCCC(=O)OCCCCCC)CCN(CC)CC` [Example 37, 1-Heptyl 21-hexyl 11-(2-(diethylamino)ethyl)-5-(4-(heptyloxy)-4-oxobutyl)-17-(4-(hexyloxy)-4-oxobutyl)-7,15-d ioxo-6,8,14,16-tetraoxa-11-azahenicosanedioate], for which, in the series on human EPO, the “Relative amount of EPO protein” value is reported as 5.18. Also, in series [1], the Particle size came out at 58.6 nm.
With `CCCCCCC(CCCC(=O)OCC(CCCCC)CCCCC)OC(=O)OCCN(CCCN(CC)CC)CCOC(=O)OC(CCCCCC)CCCC(=O)OCC(CCCCC)CCCCC` (stereo not drawn) [Example 13, Bis(2-pentylheptyl) 11-(3-(diethylamino)propyl)-5,17-dihexyl-7,15-dioxo-6,8,14,16-tetraoxa-11-azahenicosanedio ate], the “Relative amount of EPO protein” value in the series with human EPO is reported as 5.09. Besides, the Particle size amounted to 83.4 nm in series [2] (setting [3]) and 60.4 nm in series [1].

The record behind these values is patent US20240124389A1, “COMPOUND OR SALT THEREOF, LIPID PARTICLES, AND PHARMACEUTICAL COMPOSITION” (FUJIFILM Corporation, priority 2021, published 2024).
